Test results published in patent US20250152585A1, “PHARMACEUTICAL COMPOUND” (Duke Street Bio Limited, priority 2022, published 2025).
Read-outs that look alike come from different tables or passages of the source.

Columns and labels:
[1] = biological target: T1, N-terminally FLAG-tagged PARP2 (amino acids 1-583) (Homo sapiens, UniProt Q9UGN5); test: PARP2 probe displacement HTRF assay; type: binding; details: binned Kd
T1 construct: N-terminally FLAG-tagged PARP2 (amino acids 1-583)
Method: Data analysis was performed identical as for PARP1.

[2] = biological target: T2, full length N-terminally FLAG-tagged PARP1 (Homo sapiens, UniProt P09874); test: PARP1 probe displacement HTRF assay; details: for Selectivity: PARP1 over PARP2, ratio Kd (PARP2)/Kd (PARP1); for Kd: binned Kd
[3] = biological target: T2, full length N-terminally FLAG-tagged PARP1; test: PARP1 biochemical DELFIA assay (auto-PARylation); set-up: recombinant full length human N-terminally FLAG-tagged PARP1
[4] = read-out: PARP1 HTRF, probe displacement HTRF
[5] = binned IC50, biochemical auto-PARylation assay
[6] = read-out: PARP1 HTRF, PARP1 probe displacement HTRF
[7] = binned IC50, PARP1 biochemical DELFIA assay
[8] = PARP1 HTRF, PARP1 probe displacement HTRF
[9] = PARP1 HTRF, probe displacement HTRF

T2 sequence (P09874 whole entry): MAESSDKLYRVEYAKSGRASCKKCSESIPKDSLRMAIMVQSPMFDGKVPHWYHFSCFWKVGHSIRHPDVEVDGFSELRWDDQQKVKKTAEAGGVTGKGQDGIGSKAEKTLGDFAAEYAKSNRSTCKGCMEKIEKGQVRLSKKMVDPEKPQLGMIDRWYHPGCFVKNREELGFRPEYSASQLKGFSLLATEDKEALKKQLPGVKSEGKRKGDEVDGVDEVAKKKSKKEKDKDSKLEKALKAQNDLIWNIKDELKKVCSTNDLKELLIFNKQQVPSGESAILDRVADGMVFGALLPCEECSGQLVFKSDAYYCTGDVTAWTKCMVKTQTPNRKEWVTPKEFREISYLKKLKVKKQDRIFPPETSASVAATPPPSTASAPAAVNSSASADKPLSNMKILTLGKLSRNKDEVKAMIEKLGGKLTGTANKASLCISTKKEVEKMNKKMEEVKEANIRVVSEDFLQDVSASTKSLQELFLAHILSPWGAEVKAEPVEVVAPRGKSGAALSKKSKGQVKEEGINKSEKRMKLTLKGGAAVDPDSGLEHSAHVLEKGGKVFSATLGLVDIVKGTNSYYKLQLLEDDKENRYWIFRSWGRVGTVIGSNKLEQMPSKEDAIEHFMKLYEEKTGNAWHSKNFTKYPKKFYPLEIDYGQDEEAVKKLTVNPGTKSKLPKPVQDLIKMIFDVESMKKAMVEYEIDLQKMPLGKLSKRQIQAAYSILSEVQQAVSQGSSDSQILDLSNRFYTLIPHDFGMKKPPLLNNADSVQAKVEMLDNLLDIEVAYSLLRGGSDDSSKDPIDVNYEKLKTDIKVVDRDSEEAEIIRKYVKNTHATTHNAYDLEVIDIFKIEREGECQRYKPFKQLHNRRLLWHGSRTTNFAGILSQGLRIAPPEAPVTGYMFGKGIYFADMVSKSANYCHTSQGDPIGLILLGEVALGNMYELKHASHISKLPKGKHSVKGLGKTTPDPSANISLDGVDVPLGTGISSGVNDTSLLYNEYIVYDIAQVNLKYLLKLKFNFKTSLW
T1 sequence (Q9UGN5 whole entry, the tested form may be a part): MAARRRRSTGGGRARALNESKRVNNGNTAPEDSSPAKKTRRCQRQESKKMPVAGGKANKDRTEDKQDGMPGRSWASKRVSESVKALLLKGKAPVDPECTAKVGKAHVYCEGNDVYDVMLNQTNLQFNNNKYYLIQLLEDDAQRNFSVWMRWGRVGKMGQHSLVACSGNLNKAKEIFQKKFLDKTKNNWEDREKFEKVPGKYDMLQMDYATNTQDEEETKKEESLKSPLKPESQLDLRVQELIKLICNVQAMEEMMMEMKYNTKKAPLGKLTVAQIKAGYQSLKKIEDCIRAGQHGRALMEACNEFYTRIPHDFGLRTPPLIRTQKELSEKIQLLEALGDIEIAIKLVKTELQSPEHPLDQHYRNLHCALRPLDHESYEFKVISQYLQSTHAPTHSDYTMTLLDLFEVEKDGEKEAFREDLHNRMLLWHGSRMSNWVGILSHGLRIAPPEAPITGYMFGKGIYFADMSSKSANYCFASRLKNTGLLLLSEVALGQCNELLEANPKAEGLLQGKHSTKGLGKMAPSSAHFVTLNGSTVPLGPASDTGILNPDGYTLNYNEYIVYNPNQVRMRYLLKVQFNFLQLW

SMILES: CCc1ccc(C2CCN(C3CCN(c4cnc(C(=O)NC5CC5)c(F)c4)CC3)C2)[nH]c1=O (single isomer, unassigned) [Compound 408a]
- Kd ([1]; probe displacement HTRF): 100 to 1000 nM
- Selectivity ([2]; probe displacement HTRF): +++ (+++ indicate a value of at least 100)
- Kd [2, 4]: < 10 nM
- IC50 [3, 5]: < 10 nM

SMILES: N#Cc1ccc(N2CCC(N3CCCC(c4nc5ccccc5c(=O)[nH]4)C3)CC2)nc1 (single isomer, unassigned) [Compound 74a]
- Kd ([1]; PARP2 probe displacement HTRF): 1000 to 10000 nM
- Selectivity ([2]; probe displacement HTRF): + (+ indicates a value of 10 to less than 50)
- Kd [2, 6]: 100 to 1000 nM
- IC50 [3, 7]: 100 to 1000 nM

SMILES: CNC(=O)c1ccc(OCCN2CCCC(Cc3nc4ccccc4c(=O)[nH]3)C2)cn1 (single isomer, unassigned) [Compound 14b, N-methyl-5-(2-(3-((4-oxo-3,4-dihydroquinazolin-2-yl)methyl)piperidin-1-yl)ethoxy)picolinamide]
- Kd ([1]; PARP2 probe displacement HTRF): > 10000 nM
- Kd [2, 8]: 10 to 100 nM
- Selectivity ([2]; probe displacement HTRF): +++ (+++ indicate a value of at least 100)
- IC50 [3, 7]: 10 to 100 nM

SMILES: CC(=O)Nc1ccc(N2CCC(N3CCC(c4cc5ccccc5c(=O)[nH]4)C3)CC2)c(Cl)c1 (single isomer, unassigned) [Compound 273a]
- Kd ([1]; probe displacement HTRF): 1000 to 10000 nM
- Selectivity ([2]; probe displacement HTRF): − (− indicates a value of less than 10)
- Kd [2, 4]: 100 to 1000 nM
- IC50 [3, 5]: 100 to 1000 nM

SMILES: CNC(=O)c1ccc(N2CCC(N3CCC(c4nc5sc6c(c5c(=O)[nH]4)CCC6)C3)CC2)cn1 (single isomer, unassigned) [Compound 189b]
- Kd ([1]; PARP2 probe displacement HTRF): 10 to 100 nM
- Selectivity ([2]; probe displacement HTRF): ++ (++ indicates a value of 50 to less than 100)
- Kd [2, 6]: < 10 nM
- IC50 [3, 7]: < 10 nM

SMILES: CNC(=O)c1ccc(N2CCC(N3CCCC(c4nc5ccccc5c(=O)[nH]4)C3)CC2)c(C(F)F)n1 (racemic) [Compound 156rac]
- Kd ([1]; PARP2 probe displacement HTRF): > 10000 nM
- Selectivity ([2]; probe displacement HTRF): ++ (++ indicates a value of 50 to less than 100)
- Kd [2, 6]: 10 to 100 nM
- IC50 [3, 7]: 10 to 100 nM

SMILES: CNC(=O)c1ccc(N2CCC(N3CCC(c4nc5c(F)cc(F)cc5c(=O)[nH]4)C3)CC2)cn1 (single isomer, unassigned) [Compound 181b]
- Kd ([1]; PARP2 probe displacement HTRF): 100 to 1000 nM
- Selectivity ([2]; probe displacement HTRF): +++ (+++ indicate a value of at least 100)
- Kd [2, 6]: < 10 nM
- IC50 [3, 7]: < 10 nM

SMILES: CNC(=O)c1ccc(N2CCC(N3CCC(c4[nH]c(=O)c5cc(F)ccc5c4F)C3)CC2)cn1 (single isomer, unassigned) [Compound 401b]
- Kd ([1]; probe displacement HTRF): 10 to 100 nM
- Selectivity ([2]; probe displacement HTRF): + (+ indicates a value of 10 to less than 50)
- Kd [2, 4]: < 10 nM
- IC50 [3, 5]: < 10 nM

SMILES: CNC(=O)c1ccc(N2CCC(N3CCC(c4nc5ccc(F)c(F)c5c(=O)[nH]4)C3)CC2)cn1 (single isomer, unassigned) [Compound 222b]
- Kd ([1]; probe displacement HTRF): 10 to 100 nM
- Selectivity ([2]; probe displacement HTRF): +++ (+++ indicate a value of at least 100)
- Kd [2, 4]: < 10 nM
- IC50 [3, 5]: < 10 nM

SMILES: CNC(=O)c1ccc(N2CCC(N3CCC(c4cc5[nH]nc(C(F)(F)F)c5c(=O)[nH]4)C3)CC2)cn1 (single isomer, unassigned) [Compound 194b, N-methyl-5-(4-(3-(4-oxo-3-(trifluoromethyl)-4,5-dihydro-1H-pyrazolo[4,3-c]pyridin-6-yl)pyrrolidin-1-yl)piperidin-1-yl)picolinamide]
- Kd ([1]; PARP2 probe displacement HTRF): 10 to 100 nM
- Kd [2, 8]: < 10 nM
- Selectivity ([2]; probe displacement HTRF): + (+ indicates a value of 10 to less than 50)
- IC50 [3, 7]: < 10 nM

SMILES: CNC(=O)c1ccc(N2CCC(N3CCC(c4[nH]c(=O)c5ccccc5c4Cl)C3)CC2)cn1 (single isomer, unassigned) [Compound 219b]
- Kd ([1]; probe displacement HTRF): 100 to 1000 nM
- Selectivity ([2]; probe displacement HTRF): +++ (+++ indicate a value of at least 100)
- Kd [2, 4]: < 10 nM
- IC50 [3, 5]: < 10 nM

SMILES: CNC(=O)c1ccc(N2CCC(N3CCC(c4cc5ccc(F)cc5c(=O)[nH]4)C3)CC2)cc1F (single isomer, unassigned) [Compound 270a]
- Kd ([1]; probe displacement HTRF): 10 to 100 nM
- Selectivity ([2]; probe displacement HTRF): − (− indicates a value of less than 10)
- Kd [2, 4]: 10 to 100 nM
- IC50 [3, 5]: 10 to 100 nM

SMILES: O=c1[nH]c(CC2CCCN(C3CCC(F)(F)CC3)C2)nc2ccccc12 (single isomer, unassigned) [Compound 11b]
- Kd ([1]; PARP2 probe displacement HTRF): 1000 to 10000 nM
- Selectivity ([2]; probe displacement HTRF): − (− indicates a value of less than 10)
- Kd [2, 6]: 100 to 1000 nM
- IC50 [3, 7]: 100 to 1000 nM

SMILES: CNC(=O)c1ccc(N2CCC(N3CCC(c4[nH]c(=O)c5ccccc5c4C(F)(F)F)C3)CC2)cn1 (single isomer, unassigned) [Compound 404a]
- Kd ([1]; probe displacement HTRF): 1000 to 10000 nM
- Selectivity ([2]; probe displacement HTRF): +++ (+++ indicate a value of at least 100)
- Kd [2, 4]: 10 to 100 nM
- IC50 [3, 5]: 10 to 100 nM

SMILES: CNC(=O)c1ccc(N2CC(N3CCCC(c4nc5ccccc5c(=O)[nH]4)CC3)C2)cn1 (single isomer, unassigned) [Compound 145a]
- Kd ([1]; PARP2 probe displacement HTRF): 1000 to 10000 nM
- Selectivity ([2]; probe displacement HTRF): +++ (+++ indicate a value of at least 100)
- Kd [2, 6]: < 10 nM
- IC50 [3, 7]: < 10 nM

SMILES: CNC(=O)c1ccc(N2CCC(N3CCCC(c4nc5ccncc5c(=O)[nH]4)C3)CC2)cn1 (single isomer, unassigned) [Compound 93b]
- Kd ([1]; PARP2 probe displacement HTRF): > 10000 nM
- Selectivity ([2]; probe displacement HTRF): − (− indicates a value of less than 10)
- Kd [2, 6]: 1000 to 10000 nM
- IC50 [3, 7]: 1000 to 10000 nM

SMILES: CNC(=O)c1ccc(N2CCC(N3CCCC(c4cc5ccccc5c(=O)[nH]4)C3)CC2)cn1 (single isomer, unassigned) [Compound 100a]
- Kd ([1]; PARP2 probe displacement HTRF): 100 to 1000 nM
- Selectivity ([2]; probe displacement HTRF): +++ (+++ indicate a value of at least 100)
- Kd [2, 6]: < 10 nM
- IC50 [3, 7]: < 10 nM

SMILES: O=c1[nH]c(C2CCN(C3CCN(c4nc5ccccc5[nH]4)CC3)C2)cc2ccccc12 (racemic) [Compound 297rac]
- Kd ([1]; probe displacement HTRF): 100 to 1000 nM
- Selectivity ([2]; probe displacement HTRF): − (− indicates a value of less than 10)
- Kd [2, 4]: 10 to 100 nM
- IC50 [3, 5]: 10 to 100 nM

SMILES: CCc1ccc(C2CCN(C3CCN(c4ccc(C(=O)NCCF)nc4F)CC3)C2)[nH]c1=O (single isomer, unassigned) [Compound 322a]
- Kd ([1]; probe displacement HTRF): > 10000 nM
- Selectivity ([2]; probe displacement HTRF): +++ (+++ indicate a value of at least 100)
- Kd [2, 4]: < 10 nM
- IC50 [3, 5]: < 10 nM

SMILES: CNC(=O)c1ccc(N2CCC(N3CCC(c4ncc(C(F)(F)F)c(=O)[nH]4)C3)CC2)cn1 (single isomer, unassigned) [Compound 56a]
- Kd ([1]; PARP2 probe displacement HTRF): > 10000 nM
- Selectivity ([2]; probe displacement HTRF): ++ (++ indicates a value of 50 to less than 100)
- Kd [2, 6]: 10 to 100 nM
- IC50 [3, 7]: 100 to 1000 nM

SMILES: CCNC(=O)c1ccc(N2CCC(N3CCCC(c4nc5ccccc5c(=O)[nH]4)C3)CC2)cn1 (single isomer, unassigned) [Compound 122b]
- Kd ([1]; PARP2 probe displacement HTRF): 1000 to 10000 nM
- Selectivity ([2]; probe displacement HTRF): − (− indicates a value of less than 10)
- Kd [2, 6]: 100 to 1000 nM
- IC50 [3, 7]: 10 to 100 nM

SMILES: N#Cc1ccc(N2CCC(N3CC4(c5nc6ccc(F)cc6c(=O)[nH]5)CC3C4)CC2)c(F)c1 [Compound 380]
- Kd ([1]; probe displacement HTRF): > 10000 nM
- Kd [2, 9]: < 10 nM
- Selectivity ([2]; probe displacement HTRF): +++ (+++ indicate a value of at least 100)
- IC50 [3, 5]: < 10 nM

SMILES: CNC(=O)c1ccc(N2CCC(N3CC4(c5nc6ccncc6c(=O)[nH]5)CC3C4)CC2)cn1 [Compound 304]
- Kd ([1]; probe displacement HTRF): > 10000 nM
- Kd [2, 9]: 10 to 100 nM
- Selectivity ([2]; probe displacement HTRF): +++ (+++ indicate a value of at least 100)
- IC50 [3, 5]: < 10 nM

SMILES: CNC(=O)c1ccc(N2CCC(N3CCC(c4[nH]c(=O)c5cc(F)ccc5c4F)C3)CC2)cn1 (single isomer, unassigned) [Compound 370b]
- Kd ([1]; probe displacement HTRF): 10 to 100 nM
- Selectivity ([2]; probe displacement HTRF): ++ (++ indicates a value of 50 to less than 100)
- Kd [2, 4]: < 10 nM
- IC50 [3, 5]: < 10 nM

SMILES: CNC(=O)c1ccc(N2CC(CN3CCC(c4nc5ccccc5c(=O)[nH]4)CC3)C2)cn1 [Compound 45]
- Kd ([1]; PARP2 probe displacement HTRF): 100 to 1000 nM
- Kd [2, 8]: < 10 nM
- Selectivity ([2]; probe displacement HTRF): +++ (+++ indicate a value of at least 100)
- IC50 [3, 7]: < 10 nM

SMILES: CNC(=O)c1cc(C)c(N2CCC(N3CCC(c4cc5ccccc5c(=O)[nH]4)C3)CC2)cn1 (racemic) [Compound 195rac]
- Kd ([1]; PARP2 probe displacement HTRF): 100 to 1000 nM
- Selectivity ([2]; probe displacement HTRF): +++ (+++ indicate a value of at least 100)
- Kd [2, 6]: < 10 nM
- IC50 [3, 7]: < 10 nM

SMILES: CNC(=O)c1ccc(N2CCC(N3CCCC(c4ncc(CC(F)(F)F)c(=O)[nH]4)C3)CC2)cn1 (single isomer, unassigned) [Compound 212b]
- Kd ([1]; PARP2 probe displacement HTRF): > 10000 nM
- Selectivity ([2]; probe displacement HTRF): − (− indicates a value of less than 10)
- Kd [2, 6]: > 10000 nM
- IC50 [3, 7]: > 10000 nM
